Laboratory results taken from patent publication US5591741A, “Fungicidal spiroheterocyclic derivatives” (American Cyanamid Company, priority 1993, dated 1997).

What was measured:
Alternaria solani = assay: Activity against tomato early blight (AS); format: in vivo; conditions: Table VI; tomato seedlings, contact prophylactic foliar spray, 4 days
Summary of the method: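 Foliar contact prophylactic spray on tomato seedlings (cv Outdoor Girl, second true leaf expanded) in acetone/water 50:50 with 0.04% Tween 20; 24 h at 20° C, 40% R.H., then inoculation with 10^4 spores/ml A. solani conidia. Kept moist at 21° C; lesion cover rated 4 days post-inoculation against untreated or diluent-sprayed controls.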

Pyricularia oryzae = format: in vivo; conditions: rice seedlings, direct therapeutic foliar spray, 600 ppm, 4-5 days
[1] = system: Erysiphe graminis f.sp. hordei; assay: Activity against barley powdery mildew, direct therapeutic (EGT); format: in vivo; conditions: direct therapeutic foliar spray, 600 ppm, up to 7 days
Summary of the method: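 Barley seedlings (cv. Golden Promise, single-leaf stage) were dusted with mildew conidia one day before a therapeutic foliar spray of 600 ppm compound. Plants were kept at 18 °C and 40% humidity for up to 7 days, and sporulating leaf area was rated against untreated or diluent-sprayed controls.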

Venturia inaequalis = assay: Activity against apple scab in-vitro (VII); format: cell-based; conditions: 10 ppm, 10 days, 20° C., mycelial growth
Summary of the method: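 Compound in acetone was tested at 10 ppm final in half-strength Potato Dextrose Broth inoculated with V. inaequalis mycelial fragments and spores at 5×10^4 propagules/ml. After 10 days at 20° C, mycelial growth was rated against untreated or diluent controls.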

Phytophthora infestans = format: in vivo; conditions: tomato, direct protectant foliar spray
Leptosphaeria nodorum = assay: Activity against wheat leafspot (LN); format: in vivo; conditions: direct therapeutic foliar spray, 600 ppm, 6-8 days
Summary of the method: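 Wheat cv Norman at single-leaf stage spray-inoculated with 1.5×10^6 conidia/ml, held 24 h at high humidity, then sprayed therapeutically with test compound at 600 ppm. Kept 6-8 days at 22° C, 70% humidity; lesion density per leaf rated against untreated or diluent-sprayed controls.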

[2] = system: Pseudocercosporella herpotrichoides; assay: Activity against wheat eyespot in-vitro (PHI); format: cell-based; conditions: 10 ppm, 10 days, 20° C., mycelial growth
Summary of the method: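 P. herpotrichoides mycelial fragments (5×10^4/ml) grown in half-strength PDB with compound at 10 ppm final, added from acetone. Incubated 10 days at 20 °C; mycelial growth rated against untreated or diluent controls.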

[3] = system: Erysiphe graminis f.sp. hordei; assay: Direct protectant activity against barley powdery mildew (EGP); format: in vivo; conditions: direct protectant foliar spray, 8 days
Summary of the method: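 Barley seedlings (cv Golden Promise, single-leaf stage) were foliar-sprayed, held 24 h at 18 °C/40% RH, then dusted with mildew conidia. After 8 days at 18 °C/40% RH, sporulating leaf area was scored as a rating against untreated or diluent-sprayed controls.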

Plasmopara viticola = assay: Antisporulant activity against vine downy mildew (PVA); format: in vivo; conditions: vine leaves, antisporulant foliar spray, 600 ppm, 750 l/ha
Summary of the method: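 Cabernet Sauvignon vines (~8 cm) inoculated on lower leaf surfaces with 5×10^4 zoosporangia/ml, held 24 h at 21° C high humidity then 24 h glasshouse. Infected leaves sprayed underside with 600 ppm compound in 1:1 water/acetone, 0.04% Tween 20, 750 l/ha; 96 h glasshouse, 24 h humidity. Sporulating leaf area rated versus control.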

Rhizoctonia solani = assay: Activity against Rhizoctonia in-vitro (RSI); format: cell-based; conditions: 10 ppm, 10 days, 20° C., mycelial growth
Summary of the method: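 R. solani mycelial fragments (5×10^4/ml) in half-strength Potato Dextrose Broth with compound added from acetone to 10 ppm final. Mycelial growth assessed after 10 days at 20° C, rated against untreated or diluent control.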

Botrytis cinerea = assay: Direct protectant activity against broad bean grey mould (BCB); format: in vivo; conditions: direct protectant foliar spray, 600 ppm, 4 days
Summary of the method: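 Broad bean plants (cv The Sutton, two leaf pairs) sprayed on upper leaf surfaces at 600 ppm, then inoculated 24 h later with 10^6 conidia/ml. Kept 4 days at 22 °C, high humidity; disease control rated from % leaf area with lesions against untreated or diluent controls.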

CCCN(C1COC2(CCC(C(C)(C)C)CC2)C1)C1CC2CCC1C2 (stereo not shown) [Compound 130]
2 (greater than 80% disease control): disease control rating EGT [1] | disease control rating PIP (Phytophthora infestans) | disease control rating EGP [3]
0 (less than 50% disease control): disease control rating AS (Alternaria solani) | disease control rating PO (Pyricularia oryzae) | disease control rating LN (Leptosphaeria nodorum) | disease control rating PHI [2] | disease control rating PVA (Plasmopara viticola) | disease control rating RSI (Rhizoctonia solani) | disease control rating BCB (Botrytis cinerea)
1 (about 50-80% disease control): disease control rating VII (Venturia inaequalis)

C=CCN(C1CCCCC1)C1COC2(CCC(C(C)(C)C)CC2)C1 (stereo not shown) [Compound 79]
1 (about 50-80% disease control): disease control rating BCB (Botrytis cinerea)
2 (greater than 80% disease control): disease control rating EGT [1] | disease control rating PIP (Phytophthora infestans) | disease control rating EGP [3]
0 (less than 50% disease control): disease control rating AS (Alternaria solani) | disease control rating PO (Pyricularia oryzae) | disease control rating VII (Venturia inaequalis) | disease control rating LN (Leptosphaeria nodorum) | disease control rating PHI [2] | disease control rating PVA (Plasmopara viticola) | disease control rating RSI (Rhizoctonia solani)

CN(C)C1COC2(CCC(C(C)(C)C)CC2)C1 (stereo not shown) [Compound 67]
2 (greater than 80% disease control): disease control rating EGT [1] | disease control rating PIP (Phytophthora infestans) | disease control rating EGP [3]
0 (less than 50% disease control): disease control rating AS (Alternaria solani) | disease control rating VII (Venturia inaequalis) | disease control rating PHI [2] | disease control rating PVA (Plasmopara viticola) | disease control rating RSI (Rhizoctonia solani) | disease control rating BCB (Botrytis cinerea)
1 (about 50-80% disease control): disease control rating PO (Pyricularia oryzae) | disease control rating LN (Leptosphaeria nodorum)

CCC(C)CC(C)NC1COC2(CCC(C(C)(C)C)CC2)C1 (stereo not shown) [Compound 112]
2 (greater than 80% disease control): disease control rating EGT [1] | disease control rating PIP (Phytophthora infestans) | disease control rating EGP [3]
0 (less than 50% disease control): disease control rating AS (Alternaria solani) | disease control rating PO (Pyricularia oryzae) | disease control rating LN (Leptosphaeria nodorum) | disease control rating PVA (Plasmopara viticola) | disease control rating BCB (Botrytis cinerea)
1 (about 50-80% disease control): disease control rating VII (Venturia inaequalis) | disease control rating PHI [2] | disease control rating RSI (Rhizoctonia solani)

CC(C)(C)c1ccc(NC2COC3(CCC(C(C)(C)C)CC3)C2)cc1 (stereo not shown) [Compound 24]
0 (less than 50% disease control): disease control rating AS (Alternaria solani) | disease control rating PO (Pyricularia oryzae) | disease control rating EGT [1] | disease control rating VII (Venturia inaequalis) | disease control rating PIP (Phytophthora infestans) | disease control rating LN (Leptosphaeria nodorum) | disease control rating PHI [2] | disease control rating EGP [3] | disease control rating PVA (Plasmopara viticola) | disease control rating RSI (Rhizoctonia solani) | disease control rating BCB (Botrytis cinerea)
